Experimental data: patent US20110257732A1, “STENTS HAVING CONTROLLED ELUTION” (Micell Technologies, Inc., priority 2010, published 2011)

Tests used:
[1] = Whole blood rapamycin concentration after coated stent implantation, LC-MS/MS (Example 32); conditions: every time point 5 minutes to day 180, every subject; one coated stent (135 micrograms sirolimus) per porcine subject
Method: Blood serum levels of porcine subjects having coated stents implanted were tested at multiple time points. The coated stents implanted were prepared as follows: coated stents for the study comprise a coating that was deposited on the stent by deposition of rapamycin in dry powder form by RESS methods and equipment described herein and deposition of polymer particles by RESS methods and equipment described herein. A PDPDP (Polymer, sinter, Drug, Polymer, sinter, Drug, Polymer, sinter) coating sequence was used wherein the polymer was 50:50 PLGA, and the drug was rapamycin. The sinter step was performed at 100° C./150 psi/10 min after each “P” (or polymer) layer. […] The coating was about 5-15 micrometers thick on each stent, and comprised a thicker coating on the abluminal surface (coating bias). […]
Multiple batches of coated stents were created, implanted in the porcine subjects, one coated stent per subject, and each subject's blood serum levels were tested at multiple time points. […] The balloon was then inflated at a steady rate to a pressure sufficient to target a visually assessed balloon-artery ratio of 1.1:1-1.2:1. Confirmation of this balloon-artery ratio was made when the angiographic images were quantitatively assessed. […]
The whole blood sample was tested for rapamycin concentration using LC-MS/MS. Samples were quantified for rapamycin using ascomycin as the internal standard. […]

[2] = Sirolimus remaining on and released from explanted stents (Example 34); assay type: in vivo, porcine; conditions: for Stent-associated sirolimus, Drug Released, Mean: calculated from Day 0 baseline measurement
Method: (§1) Pharmacokinetic studies were performed on coated stents prepared and implanted as noted in Example 32. […] The coating encapsuled each of the stents.
(§2) Complete balloon deflation was verified with fluoroscopy.
(§3) Subjects were euthanized at the testing time points, and the tissue adjacent the stent (for non-limiting example, tissue surrounding the stent—referred to generally as arterial tissue) was extracted for analysis of the amount of pharmaceutical agent therein. Stents were also analyzed for the amount of pharmaceutical agent remaining on the coated stent at each time point. Testing methods as noted elsewhere herein were used to determine the amount of pharmaceutical agent remaining on the stent or in the tissue, and/or are methods that would be known to one of skill in the art.

[3] = Stented artery sirolimus concentration (Example 34); assay type: in vivo, porcine; conditions: for Pharmaceutical agent released from the coated stent recovered in the analyzed arterial tissue: based on 135 micrograms on the original stent at time 0
Method: as §1, §2, §3

[4] = Day 60, porcine coronary artery
[5] = Day 90, porcine coronary artery

SMILES: CO[C@H]1C[C@@H]2CC[C@@H](C)[C@@](O)(O2)C(=O)C(=O)N2CCCC[C@H]2C(=O)O[C@H]([C@H](C)C[C@@H]2CC[C@@H](O)[C@H](OC)C2)CC(=O)[C@H](C)/C=C(\C)[C@@H](O)[C@@H](OC)C(=O)[C@H](C)C[C@H](C)/C=C/C=C/C=C/1C [rapamycin]
- Concentration of rapamycin in whole blood (below quantifiable limit) [1]: < 0.100 ng/mL
- Stent-associated sirolimus, Drug Released, Mean ([2]; Day 0 baseline): 0 µg
- Stent-associated sirolimus, Drug Remaining, Mean ([2]; Day 0 baseline, coated stent (PDPDP, 50:50 PLGA, 135 micrograms sirolimus)): 137.00 µg
- Stent-associated sirolimus, Drug Remaining, Mean ([2]; Day 1, coated stent (PDPDP, 50:50 PLGA, 135 micrograms sirolimus) in porcine coronary artery): 137.00 µg
- Stent-associated sirolimus, Drug Released, Mean ([2]; Day 1, porcine coronary artery): 1.67 µg
- Stent-associated sirolimus, Drug Remaining, Mean ([2]; Day 3, coated stent (PDPDP, 50:50 PLGA, 135 micrograms sirolimus) in porcine coronary artery): 135.83 µg
- Stent-associated sirolimus, Drug Released, Mean ([2]; Day 3, porcine coronary artery): 2.83 µg
- Stent-associated sirolimus, Drug Remaining, Mean ([2]; Day 7, coated stent (PDPDP, 50:50 PLGA, 135 micrograms sirolimus) in porcine coronary artery): 127.83 µg
- Stent-associated sirolimus, Drug Released, Mean ([2]; Day 7, porcine coronary artery): 9.17 µg
- Stent-associated sirolimus, Drug Remaining, Mean ([2]; Day 14, coated stent (PDPDP, 50:50 PLGA, 135 micrograms sirolimus) in porcine coronary artery): 119.67 µg
- Stent-associated sirolimus, Drug Released, Mean ([2]; Day 14, porcine coronary artery): 17.33 µg
- Stent-associated sirolimus, Drug Remaining, Mean ([2]; Day 21, coated stent (PDPDP, 50:50 PLGA, 135 micrograms sirolimus) in porcine coronary artery): 103.68 µg
- Stent-associated sirolimus, Drug Released, Mean ([2]; Day 21, porcine coronary artery): 33.32 µg
- Stent-associated sirolimus, Drug Remaining, Mean ([2]; Day 30, coated stent (PDPDP, 50:50 PLGA, 135 micrograms sirolimus) in porcine coronary artery): 65.25 µg
- Stent-associated sirolimus, Drug Released, Mean ([2]; Day 30, porcine coronary artery): 71.75 µg
- Stent-associated sirolimus, Drug Remaining, Mean ([2]; Day 45, coated stent (PDPDP, 50:50 PLGA, 135 micrograms sirolimus) in porcine coronary artery): 3.89 µg
- Stent-associated sirolimus, Drug Released, Mean ([2]; Day 45, porcine coronary artery): 133.12 µg
- Stent-associated sirolimus, Drug Remaining, Mean ([2]; Day 60, coated stent (PDPDP, 50:50 PLGA, 135 micrograms sirolimus) in porcine coronary artery): 1.59 µg
- Average incremental stent sirolimus elution (loss) rate [2, 4]: 0.15 ± 0.04 µg/day
- Stent-associated sirolimus, Drug Released, Mean [2, 4]: 135.41 µg
- Stent-associated sirolimus, Drug Remaining, Mean ([2]; Day 90, coated stent (PDPDP, 50:50 PLGA, 135 micrograms sirolimus) in porcine coronary artery): 0.11 µg
- Average incremental stent sirolimus elution (loss) rate [2, 5]: 0.05 ± 0.00 µg/day
- Stent-associated sirolimus, Drug Released, Mean [2, 5]: 136.89 µg
- Average incremental stent sirolimus elution (loss) rate ([2]; peak around day 30, porcine coronary artery): 4.27 ± 1.69 µg/day
- Pharmaceutical agent released from the coated stent recovered in the analyzed arterial tissue ([3]; at day 30): about 60%
- Pharmaceutical agent released from the coated stent recovered in the analyzed arterial tissue ([3]; between days 3 and 60): about 40%
- concentration at 1 day ([3]; pig, stented arterial tissue, other: coated stent implanted in coronary artery, 135 micrograms per stent, day 1, porcine, coated stent 135 micrograms sirolimus, read-out: Stented artery sirolimus concentration (tissue within stented segments)): 19600 ng/g
- concentration at 3 day ([3]; pig, stented arterial tissue, other: coated stent implanted in coronary artery, 135 micrograms per stent, day 3, porcine, coated stent 135 micrograms sirolimus, read-out: Stented artery sirolimus concentration (tissue within stented segments)): 21400 ng/g
- concentration at 7 day ([3]; pig, stented arterial tissue, other: coated stent implanted in coronary artery, 135 micrograms per stent, day 7, porcine, coated stent 135 micrograms sirolimus, read-out: Stented artery sirolimus concentration (tissue within stented segments)): 42200 ng/g
- concentration at 14 day ([3]; pig, stented arterial tissue, other: coated stent implanted in coronary artery, 135 micrograms per stent, day 14, porcine, coated stent 135 micrograms sirolimus, read-out: Stented artery sirolimus concentration (tissue within stented segments)): 55900 ng/g
- concentration at 21 day ([3]; pig, stented arterial tissue, other: coated stent implanted in coronary artery, 135 micrograms per stent, day 21, porcine, coated stent 135 micrograms sirolimus, read-out: Stented artery sirolimus concentration (tissue within stented segments)): 173000 ng/g
- concentration at 30 day ([3]; pig, stented arterial tissue, other: coated stent implanted in coronary artery, 135 micrograms per stent, day 30, porcine, coated stent 135 micrograms sirolimus, read-out: Stented artery sirolimus concentration (tissue within stented segments)): 565000 ng/g
- concentration at 45 day ([3]; pig, stented arterial tissue, other: coated stent implanted in coronary artery, 135 micrograms per stent, day 45, porcine, coated stent 135 micrograms sirolimus, read-out: Stented artery sirolimus concentration (tissue within stented segments)): 582000 ng/g
- concentration at 60 day ([3]; pig, stented arterial tissue, other: coated stent implanted in coronary artery, 135 micrograms per stent, day 60, porcine, coated stent 135 micrograms sirolimus, read-out: Stented artery sirolimus concentration (tissue within stented segments)): 532000 ng/g
- concentration at 90 day ([3]; pig, stented arterial tissue, other: coated stent implanted in coronary artery, 135 micrograms per stent, day 90, porcine, coated stent 135 micrograms sirolimus, read-out: Stented artery sirolimus concentration (tissue within stented segments)): 251000 ng/g
